Assay results published in the supplement of paper PMC11061612.

How the values were obtained:
Assay in all cases: combination Emax (second highest fraction inhibited in the dose matrix, 72 h); higher = more inhibition; extreme values may be limits of the assay
Saos-2 (Osteosarcoma) = test system: Saos-2 (Osteosarcoma)
Method in brief: (§1)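 After 24 hours at 37°C and 5% CO2 in 1536-well plates, cells in DMEM/F12 or RPMI plus 10% FBS received two-drug dose matrices for 72 hours. Viability came from CellTiter-Glo 2.0 luminescence and was scaled as inhibition, anchored at 0 by vehicle wells and at 1 by blank wells. Combination Emax is taken as the second-highest inhibition in the matrix, and Bliss excess as the observed combination effect less EA + EB − EA·EB, with EA and EB the single-agent effects.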

[1] = test system: SW48 (Colorectal Carcinoma)
Method in brief: as §1

[2] = test system: ETK-1 (Biliary Tract Carcinoma)
Method in brief: as §1

A172 (Glioblastoma) = test system: A172 (Glioblastoma)
Method in brief: as §1

[3] = test system: U-118-MG (Low Grade Glioma)
Method in brief: as §1

[4] = test system: SNU-61 (Colorectal Carcinoma)
Method in brief: as §1

[5] = test system: WSU-DLCL2 (B-Cell Non-Hodgkin's Lymphoma)
Method in brief: as §1

[6] = test system: 647-V (Bladder Carcinoma)
Method in brief: as §1

[7] = test system: TYK-nu (Ovarian Carcinoma)
Method in brief: as §1

[8] = test system: P31-FUJ (Acute Myeloid Leukemia)
Method in brief: as §1

[9] = test system: NOMO-1 (Acute Myeloid Leukemia)
Method in brief: as §1

HCC38 (Breast Carcinoma) = test system: HCC38 (Breast Carcinoma)
Method in brief: as §1

[10] = test system: SK-LMS-1 (Other Solid Carcinomas)
Method in brief: as §1

[11] = test system: MEG-01 (Chronic Myelogenous Leukemia)
Method in brief: as §1

MCF7 (Breast Carcinoma) = test system: MCF7 (Breast Carcinoma)
Method in brief: as §1

[12] = test system: BICR78 (Oral Cavity Carcinoma)
Method in brief: as §1

[13] = test system: SLVL (B-Cell Non-Hodgkin's Lymphoma)
Method in brief: as §1

[14] = test system: RCC10RGB (Kidney Carcinoma)
Method in brief: as §1

[15] = test system: SKN-3 (Head and Neck Carcinoma)
Method in brief: as §1

[16] = test system: HCT-116 (Colorectal Carcinoma)
Method in brief: as §1

SMILES	combination Emax (Saos-2 (Osteosarcoma))	combination Emax [1]	combination Emax [2]	combination Emax (A172 (Glioblastoma))	combination Emax [3]	combination Emax [4]	combination Emax [5]	combination Emax [6]	combination Emax [7]	combination Emax [8]	combination Emax [9]	combination Emax (HCC38 (Breast Carcinoma))	combination Emax [10]	combination Emax [11]	combination Emax (MCF7 (Breast Carcinoma))	combination Emax [12]	combination Emax [13]	combination Emax [14]	combination Emax [15]	combination Emax [16]
COc1cc2ncnc(Nc3ccc(F)c(Cl)c3)c2cc1OCCCN1CCOCC1 [Gefitinib] + CC(C)n1c(=O)n(C)c2cnc3cc(F)c(-c4ccc(OCCCN5CCCCC5)nc4)cc3c21 [AZD1390] (first compound max 10 µM, 7x7, partner max 0.3 µM)	0.184	0.399	0.576	0.169	0.0987	0.18	0.128	0.0854	0.197	0.455	0.328	0.109	0.12	0.11	0.0973	0.286	0.185	0.563	0.236	0.133
CS(=O)(=O)CCNCc1ccc(-c2ccc3ncnc(Nc4ccc(OCc5cccc(F)c5)c(Cl)c4)c3c2)o1 [Lapatinib] + C[C@@H](Oc1cc(-c2cnn(C3CCNCC3)c2)cnc1N)c1c(Cl)ccc(F)c1Cl [Crizotinib] (first compound max 10 µM, 7x7, partner max 10 µM)	0.889	0.911	0.958	0.941	0.491	0.697	0.924	0.906	0.719	0.957	0.828	0.556	0.864	0.992	0.981	0.918	0.65	0.908	0.738	0.956
CC(=O)c1c(C)c2cnc(Nc3ccc(N4CCNCC4)cn3)nc2n(C2CCCC2)c1=O [Palbociclib] + CC1(C)CCC(CN2CCN(c3ccc(C(=O)NS(=O)(=O)c4ccc(NCC5CCOCC5)c([N+](=O)[O-])c4)c(Oc4cnc5[nH]ccc5c4)c3)CC2)=C(c2ccc(Cl)cc2)C1 [Venetoclax] (first compound max 10 µM, 7x7, partner max 1 µM)	0.197	0.313	0.281	0.457	0.229	0.152	0.98	0.098	0.401	0.364	0.596	0.0554	0.147	0.484	0.339	0.092	0.325	0.476	0	0.559
CC(=O)c1c(C)c2cnc(Nc3ccc(N4CCNCC4)cn3)nc2n(C2CCCC2)c1=O [Palbociclib] + Cc1c2c(nn1C)CSCc1cc(n(C)n1)CSc1cc(c3ccccc3c1)OCCCc1c(C(=O)O)n(C)c3c-2c(Cl)ccc13 [AZD5991] (first compound max 10 µM, 7x7, partner max 1 µM)	0.332	0.409	0.303	0.614	0.322	0.171	0.991	0.117	0.405	0.907	0.858	0.192	0.282	0.668	0.574	0.232	0.471	0.419	0.244	0.663
CC(=O)c1c(C)c2cnc(Nc3ccc(N4CCNCC4)cn3)nc2n(C2CCCC2)c1=O [Palbociclib] + Cn1cnc2c(F)c(Nc3ccc(Br)cc3Cl)c(C(=O)NOCCO)cc21 [Selumetinib] (first compound max 10 µM, 7x7, partner max 10 µM)	0.232	0.626	0.347	0.425	0.296	0.447	0.834	0.206	0.584	0.475	0.858	0.139	0.437	0.855	0.366	0.315	0.593	0.547	0.349	0.851
COc1cccc(OCCCN)c1-c1cc(Nc2cnc(C#N)cn2)n[nH]1 [Prexasertib] + C=CCn1c(=O)c2cnc(Nc3ccc(N4CCN(C)CC4)cc3)nc2n1-c1cccc(C(C)(C)O)n1 [AZD1775] (first compound max 1 µM, partner max 1 µM)	0.935	0.834	0.666	0.832	0.743	0.515	1	0.925	0.748	1	1	0.799	0.711	0.939	0.658	0.713	0.951	0.6	0.771	0.921
COc1cccc(OCCCN)c1-c1cc(Nc2cnc(C#N)cn2)n[nH]1 [Prexasertib] + CCc1c2c(nc3ccc(O)cc13)-c1cc3c(c(=O)n1C2)COC(=O)[C@]3(O)CC [SN-38] (first compound max 1 µM, 7x7, partner max 0.3 µM)	0.887	0.889	0.727	0.751	0.986	0.698	1	1	0.861	0.979	1	0.753	0.891	0.94	0.685	0.845	0.968	0.825	0.885	0.901
COc1cccc(OCCCN)c1-c1cc(Nc2cnc(C#N)cn2)n[nH]1 [Prexasertib] + CN(C)CCCOc1ccc(-c2ccc3ncc4c(c3c2)n(C2CCOCC2)c(=O)n4C)cn1 [AZD0156] (first compound max 1 µM, 7x7, partner max 1 µM)	0.644	0.767	0.598	0.699	0.723	0.422	1	0.671	0.73	0.998	1	0.711	0.612	0.921	0.741	0.593	0.951	0.484	0.616	0.536
COc1cccc(OCCCN)c1-c1cc(Nc2cnc(C#N)cn2)n[nH]1 [Prexasertib] + C[C@@H]1COCCN1C2=NC(=NC(=C2)C3(CC3)[S@](=N)(=O)C)C4=C5C=CNC5=NC=C4 [AZD6738] (first compound max 1 µM, 7x7, partner max 10 µM)	0.704	0.81	0.588	0.775	0.772	0.422	1	0.703	0.766	1	1	0.723	0.637	0.929	0.703	0.645	0.952	0.45	0.637	0.747
COc1cccc(OCCCN)c1-c1cc(Nc2cnc(C#N)cn2)n[nH]1 [Prexasertib] + Cc1cc2ncnn2cc1Nc1ncc2c(n1)n(C1CCOCC1)c(=O)n2C [AZD7648] (first compound max 1 µM, 7x7, partner max 10 µM)	0.662	0.728	0.595	0.728	0.686	0.466	1	0.757	0.739	1	1	0.74	0.637	0.926	0.682	0.572	0.962	0.442	0.606	0.565
COc1cccc(OCCCN)c1-c1cc(Nc2cnc(C#N)cn2)n[nH]1 [Prexasertib] + O=C(c1cc(Cc2n[nH]c(=O)c3ccccc23)ccc1F)N1CCN(C(=O)C2CC2)CC1 [Olaparib] (first compound max 1 µM, 7x7, partner max 10 µM)	0.806	0.658	0.578	0.626	0.751	0.474	1	0.843	0.748	1	1	0.677	0.676	0.893	0.429	0.679	0.974	0.479	0.616	0.744
COc1cc2c(cc1OCCCCCOc1cc3c(cc1OC)C(=O)N1C=C(C)C[C@H]1C=N3)N=C[C@@H]1CC(C)=CN1C2=O [SG3199] + O=C(c1cc(Cc2n[nH]c(=O)c3ccccc23)ccc1F)N1CCN(C(=O)C2CC2)CC1 [Olaparib] (first compound max 0.001 µM, 7x7, partner max 10 µM)	0.125	0.0699	0.188	0.363	0.305	0.0451	0.127	0.276	0.369	0.124	0.145	0.0919	0.2	0.111	0.106	0.131	0.518	0.148	0.0527	0.314
CCc1c2c(nc3ccc(O)cc13)-c1cc3c(c(=O)n1C2)COC(=O)[C@]3(O)CC [SN-38] + CN(C)CCCOc1ccc(-c2ccc3ncc4c(c3c2)n(C2CCOCC2)c(=O)n4C)cn1 [AZD0156] (first compound max 0.3 µM, 7x7, partner max 1 µM)	0.944	0.826	0.572	0.81	0.893	0.152	0.944	0.985	0.847	0.979	0.98	0.682	0.914	0.73	0.686	0.786	0.972	0.689	0.47	0.826
